Patent US6610315B2, “Topical application of stable hydroalcoholic compositions for maintaining or improving skin conditions, and delivering fragrance to skin” (3M Innovative Properties Company, priority 1995, dated 2003)

How the values were obtained:
[1] = system: E. coli ATCC8739 (lab strain 223); experiment: Minimum Inhibitory Concentration (MIC); format: cell-based
Description: (§1) An overnight culture of E. coli ATCC8739 (lab strain 223) and/or S. Aureus ATCC 14154 (lab strain 502) grown on trypticase soy agar plates was resuspended in Mueller-Hinton Broth to a cell density of 0.6-1.2×10^6 colony forming units per milliliter. Chlorhexidine samples were prepared by adjusting CHG to 512 μg/ml in Mueller-Hinton Broth and serially diluting in two-fold steps in Mueller-Hinton Broth. The CHG-containing Mueller-Hinton Broth was placed in 96-well sterile microliter plates and each well was inoculated with the bacteria. The plates were then incubated for 24-48 hrs at 37° C. Bacterial growth was determined visually by comparing the plates.

[2] = system: S. Aureus ATCC 14154 (lab strain 502); experiment: Minimum Inhibitory Concentration (MIC); format: cell-based
Description: as §1

[3] = Example 9, lowest concentration of CHG giving complete kill, 24-48 hrs at 37° C.
[4] = Example 24, CHG at 0.5% by weight where present

E. coli 223 MIC [1, 4]: 4 µg/mL | S aureus 502 MIC [2, 4]: 4 µg/mL
SMILES: N=C(NCCCCCCNC(=N)NC(=N)Nc1ccc(Cl)cc1)NC(=N)Nc1ccc(Cl)cc1.O=C(O)[C@H](O)[C@@H](O)[C@H](O)[C@H](O)CO.O=C(O)[C@H](O)[C@@H](O)[C@H](O)[C@H](O)CO [0.5% CHG std., chlorhexidine gluconate]
MIC (μg/ml) E. coli [1, 3]: 4 µg/mL | MIC (μg/ml) S. aureus [2, 3]: 4 µg/mL
